Data: patent publication US10137101B2, “Alkylamido compounds and uses thereof” (Nogra Pharma Limited, priority 2009, dated 2018)

What was measured:
Colitis in C57bI6 mice = assay: Anti-murine colitis model (TNBS); type: in vivo
Description: Colitis in C57bI6 mice is induced by administering TNBS (150 mg/kg) by oral gavage on day −3. Stool samples were taken 8 hours after administration. At day 0-5, N-acetylated E2 (30 mM) was administrated by oral gavage. On day 5, mice were analyzed to obtain a mortality macroscopic score (Wallace, Gastroenterology 96: 29-36, 1989).

sebocytes [1] = assay: MTT test on human sebocytes; type: cell-based; settings: 0.1-0.5-1-2 mM, 24 and 48 h; FIG. 10
Description: To assess the possible toxic or cytostatic effect of the substances under study, a spectrophotometric test (MTT) was carried out. The sebocytes were plated in wells of a 24-well plate in suitable medium with addition of antibiotics, calcium and EGF. At roughly 70% confluence, the cells were exposed to the presence of compound A, in various concentrations (0.1-0.5-1-2 mM), for 24 and 48 h. At the end of the treatment, the MTT test was performed. […] (FIG. 10)

IL-6 [2] = assay: Inhibition of IL-6 protein induction by LPS in keratinocytes (ELISA); type: cell-based, human; settings: LPS 10 μg/ml, 24 h; 0.01-0.1-0.5 mM; FIG. 9
Description: Analysis of the inhibition by Compound A of the protein induction of IL-6 by LPS (lipopolysaccharide) was done with the ELISA kit. The keratinocytes were plated in wells of a 24-well plate. At 80% confluence, the cells were treated with LPS (10 μg/ml) in presence of compound A at the three concentrations (0.01-0.1-0.5 mM) for 24 h. At the end of the treatment, the supernatant was decanted, centrifuged so as to remove any cell detritus, and kept at −80° C. until the time of the analysis. The quantity of IL-6 present in the supernatant was normalized by the protein concentration of the sample itself.

[3] = test system: human primary keratinocytes; assay: MTT test on human primary keratinocytes; type: cell-based; settings: 0.1-1-2 mM, 24 and 48 h; FIG. 5
Description: To assess the possible toxic or cytostatic effect of the substances under study, a spectrophotometric test (MTT) was carried out. The human primary keratinocytes, isolated from skin biopsies, were plated in wells of a 24-well plate in suitable medium with addition of antibiotics, calcium, and specific growth factors. At around 70% confluence, the cells were exposed to the presence of Compound A, at various concentrations (0.1-1-2 mM), for 24 and 48 h in suitable medium with addition of antibiotics, calcium, but no growth factors. This culture condition was done for all the subsequent experiments. At the end of the treatment, the MTT test was done.

sebocytes [4] = assay: Sebogenesis induced by linoleic acid and testosterone, Nile Red Assay; type: cell-based, human; settings: LA 10^-4M, TST 20 nM, compound 1 mM
Description: Analysis of the inhibition by (compound A) of sebogenesis induced by treatment with linoleic acid (LA) and with testosterone (TST) was evaluated by spectrofluorimetry, using Nile Red as selective marker of intracellular lipids (Nile Red Assay). The sebocytes were plated in wells of a 24-well plate. Next day, they were deprived of serum (2%) and after 24 h they were stimulated, for another 24 h, with LA (10^-4M), TST (20 nM) in presence or in absence of A (1 mM). At the end of the treatment, the sebocytes were stained with Nile Red. The quantitative analysis was done by spectrofluorimetry, which made it possible to distinguish between neutral lipids and polar lipids based on the different wavelength of excitation and emission. […] (FIG. 11).
Analysis of the inhibition by compound A of sebogenesis induced by treatment with linoleic acid (LA) and with testosterone (TST) was evaluated by spectrofluorimetry, using Nile Red as selective marker of intracellular lipids (Nile Red Assay). The sebocytes were plated in wells of a 24-well plate. […] The quantitative analysis was done by spectrofluorimetry, which made it possible to distinguish between neutral lipids and polar lipids based on the different wavelength of excitation and emission.

IL-6 [5] = assay: Inhibition of IL-6 mRNA induction by IFN-γ in keratinocytes (Real time RT-PCR); type: cell-based, human; settings: IFN-γ 30 ng/ml, 6 h; 0.01-0.1-0.5 mM; FIG. 7
Description: Analysis of the inhibition by compound A of the mRNA induction of the proinflammatory cytokine IL-6 by IFN-γ was done through Real time RT-PCR. The keratinocytes were plated in dishes of 6 cm/Ø.
At 80% confluence, the cells were treated with IFN-γ (30 ng/ml) in presence of compound A (N-Acetylged) at the three concentrations (0.01-0.1-0.5 mM) for 6 h.

TNF-alpha = assay: Inhibition of TNF-alpha mRNA induction by H2O2 in keratinocytes (Real time RT-PCR); type: cell-based, human; settings: H2O2 300 μM, 6 h, FIG. 6
Description: Analysis of the inhibition of compound A of the mRNA induction of the proinflammatory cytokine TNF-alpha by H2O2 was carried out by Real time RT-PCR. The keratinocytes were plated in dishes of 6 cm/Ø. At 80% confluence, the cells were treated with H2O2 (300 μM) in presence of Compound A at the three concentrations (0.01-0.1-0.5 mM) for 6 h. At the end of the treatment, the cells were lysed in a lysis buffer and subjected to isolation and subsequent retrotranscription of the RNA. […] (FIG. 6)

sebocytes [6] = assay: Sebogenesis induced by LA and TST, fatty acids and squalene by GC-MS; type: cell-based, human; settings: compound 1 mM
Description: In order to evaluate in greater detail the inhibition by Compound A of sebogenesis induced by LA and TST, assays were performed on the lipid extract of the sebocytes using gas chromatography coupled with mass spectrometry (GC-MS). The sebocytes were treated by the scheme described for the Nile Red assay. At the end of the treatment, the cells were removed and then the lipid extraction was done by using organic solvents. One part of the extract was used to analyze the fatty acid composition, while the other part was used for the determination of the quantity of squalene, a lipid characteristic of sebum. […] (FIG. 12B)

CO[C@H](Cc1ccc(NC(C)=O)cc1)C(=O)O [Compound A, N-acetyl-(R)-(−)-3-(4-aminophenyl)-2-methoxypropionic acid]
% mortality (Colitis in C57bI6 mice; TNBS 150 mg/kg oral gavage day -3, N-acetylated E2 30 mM oral gavage day 0-5, versus TNBS alone, FIG. 1): comparable | MPO (myleoperoxidase) activity (Colitis in C57bI6 mice; TNBS + N-acetyl E2 30 mM oral gavage versus TNBS alone, FIG. 3): decreased | colonic inflammation (Ameho score) (Colitis in C57bI6 mice; TNBS + N-acetyl E2 30 mM oral gavage versus TNBS alone, FIG. 4): colonic inflammation had decreased | level of colonic lesions (Wallace macroscopic score) (Colitis in C57bI6 mice; TNBS + N-acetyl E2 30 mM oral gavage versus TNBS alone, day 5, FIG. 2): significantly less | cell vitality (MTT) (sebocytes [1]): no effects on cell vitality | inhibition of protein expression of IL-6 induced by LPS (IL-6 [2]): inhibit, in dose-dependent manner | cellular vitality (MTT) [3]: did not show any effect on cellular vitality | inhibition of sebogenesis (intracellular lipids, Nile Red) (sebocytes [4]; 24 h, FIG. 11, FIG. 13): able to reduce the lipidogenic stimulus | influence of times of treatment on inhibition of sebogenesis (Nile Red) (sebocytes [4]; FIG. 13): No differences were observed | inhibition of mRNA expression of IL-6 induced by IFN-γ (IL-6 [5]): inhibit the expression of the inflammatory cytokine induced by presence of IFN-γ which does not appear to be dose-dependent | inhibition of expression of mRNA of TNF-α induced by H2O2, higher dose (TNF-alpha; higher dose (0.5 mM), effect similar to troglitazone): complete inhibition | inhibition of expression of mRNA of TNF-α induced by H2O2 (TNF-alpha; two higher doses (0.1 mM; 0.5 mM)): able to inhibit | fatty acid assay of lipid extract (lipidogenic stimulus) (sebocytes [6]; FIG. 12A): reduced | squalene analysis of lipid extract (sebocytes [6]; FIG. 12B): confirmed
